Measurements reported in article PMC7344389, “Discovery of Anti-Amoebic Inhibitors from Screening the MMV Pandemic Response Box on Balamuthia mandrillaris, Naegleria fowleri, and Acanthamoeba castellanii” (Pathogens, 2020).
Several values for one entry are separate records, joined by “and”; a condition that tells them apart may be missing. Equal values may be shown once. Read-outs that look alike come from different tables or passages of the source.

Tests used:
Format in all cases: cell-based
[1] = tested on: A549 human lung carcinoma cells; assay: MTS cytotoxicity counter-screen of reconfirmed hits
Procedure: Cytotoxicity of the reconfirmed hits was determined by using the CellTiter 96® AQueous One Solution Cell Proliferation Assay (Promega, Madison, WI) on A549 human lung carcinoma cells. A549 cells were seeded at a concentration of 1.6 × 10^4 cells/mL in 96-well tissue culture plates (Corning, NY, USA), in the presence of serially diluted active hits against B. mandrillaris, N. fowleri, or A. castellanii. Positive control wells contained cells and media; negative control wells contained 0.1% DMSO. Cells were grown in F12K medium supplemented with 10% FBS and 1% gentamycin (all supplied from Fisher Scientific, Atlanta, GA, USA). The inhibitor concentration started at 10 µM and was diluted in doubling dilutions to assess cytotoxicity in comparison to the respective free-living amoeba. Total volume of each well was 100 µL and plates were incubated at 37 °C, 5% CO2 for 72 h. Next, 4 h before the time-point, 20 µL of MTS (Promega, Madison, WI, USA) was added to each well. Inhibition of A549 growth was assessed at the 72 h time-point measuring the optical density (OD) values at 490 nm using a SpectraMax I3X plate reader (Molecular Devices, Sunnyvale, CA, USA). Curve fitting using non-linear regression was carried out using the average of replicates and the Levenberg–Marquardt algorithm, using DMSO as the normalization control, as defined in CDD Vault (Burlingame, CA, USA).

[2] = tested on: Acanthamoeba castellanii trophozoites; assay: CellTiter-Glo 2.0 trophocidal assay, A. castellanii; details: for IC50: CTG method, 72 h, duplicate twofold serial dilutions from 10 µM, mean ± SD; for potency against A. castellanii, in words: dose-response, CTG; for Selectivity Index (A549 IC50/A. castellanii IC50): SI = (IC50 A549)/(IC50 Amoeba)
Procedure: This isolate was also purchased from ATCC. Trophozoites were routinely grown axenically at 27 °C in Protease Peptone-Glucose Media (PG) in non-vented 75 cm^2 tissue culture flasks (Olympus, El Cajon, CA, USA), until the cells were 80–90% confluent. For sub-culturing, cells were mechanically harvested to detach the cells from the culture flasks. The cells were collected by centrifugation at 4000 rpm at 4 °C.
The trophocidal activity of compounds was assessed using the CellTiter-Glo 2.0 luminescent viability assay (Promega, Madison, WI, USA), as previously described. Trophozoites were routinely cultured as described above and only logarithmic trophozoites were used. […] Initially all compounds were assessed in a single-point drug screen at 10 and 1 μM, as previously described. […] We used this process to reduce the number of potential false positives. Drugs were cherry-picked, dissolved in the media specific to each parasite, and assessed in twofold serial dilutions from the highest concentration of 10 μM. All assays were incubated at each of the parasites’ representative growth temperatures, described above, for 72 h. At the 72 h time point, 25 μL of CellTiter-Glo 2.0 reagent was added to all wells of the 96-well plates using the Biomek NX^P automated workstation. The plates were protected from light and contents were mixed using an orbital shaker at 300 rpm at room temperature for 2 min to induce cell lysis. After shaking, the plates were equilibrated at room temperature for 10 min to stabilize the luminescent signal. The adenosine triphosphate (ATP) luminescent signal (relative light units; RLUs) was measured at 490 nm with a SpectraMax I3X plate reader (Molecular Devices, Sunnyvale, CA, USA). Drug inhibitory concentration (IC50) curves were generated using total ATP RLUs, where controls were calculated as the average of replicates using the Levenberg–Marquardt algorithm, using DMSO as the normalization control, as defined in Collaborative Drug Discovery Inc. (CDD) Vault (Burlingame, CA, USA). Values reported are from a minimum of two biological replicates with standard deviations.

[3] = tested on: Balamuthia mandrillaris trophozoites; assay: CellTiter-Glo 2.0 trophocidal assay, B. mandrillaris; details: for IC50: 72 h, CTG method, duplicate twofold serial dilutions from 10 µM, mean ± SD; for Selectivity Index (A549 IC50/B. mandrillaris IC50): SI = (IC50 A549)/(IC50 Amoeba); for potency against B. mandrillaris, in words: dose-response, CTG
Procedure: Pathogenic Balamuthia mandrillaris (CDC:[…]; American Type Culture Collection (ATCC) 50209), a GAE isolate, isolated from a pregnant baboon at the San Diego Zoo in 1986 was donated by Luis Fernando […] University, Mexico [43]. Trophozoites were routinely grown axenically in Balamuthia mandrillaris Itson (BMI) media at 37 °C, 5% CO2 in vented 75 cm^2 tissue culture flasks (Olympus, El Cajon, CA, USA), until the cells were 80-90% confluent. For sub-culturing, 0.25% Trypsin-EDTA (Gibco, Gaithersburg, MD, USA) cell detachment reagent was used to detach the cells from the culture flasks. The cells were collected by centrifugation at 4000 rpm at 4 °C. Complete BMI media is produced by the addition of 10% fetal bovine serum (FBS) and 125 μg of penicillin/streptomycin antibiotics. The trophocidal activity of compounds was assessed using the CellTiter-Glo 2.0 luminescent viability assay (Promega, Madison, WI, USA), as previously described. Trophozoites were routinely cultured as described above and only logarithmic trophozoites were used. […] Inhibitors were assessed for percent inhibition using the criteria of ≤33% growth inhibition (no inhibition), 33-67% growth inhibition (moderate inhibition), and ≥67% growth inhibition (strong inhibition). […] We used this process to reduce the number of potential false positives. […] All assays were incubated at each of the parasites' representative growth temperatures, described above, for 72 h. At the 72 h time point, 25 μL of CellTiter-Glo 2.0 reagent was added to all wells of the 96-well plates using the Biomek NX^P automated workstation. The plates were protected from light and contents were mixed using an orbital shaker at 300 rpm at room temperature for 2 min to induce cell lysis. After shaking, the plates were equilibrated at room temperature for 10 min to stabilize the luminescent signal. The adenosine triphosphate (ATP) luminescent signal (relative light units; RLUs) was measured at 490 nm with a SpectraMax I3X plate reader (Molecular Devices, Sunnyvale, CA, USA). Drug inhibitory concentration (IC50) curves were generated using total ATP RLUs, where controls were calculated as the average of replicates using the Levenberg-Marquardt algorithm, using DMSO as the normalization control, as defined in Collaborative Drug Discovery Inc. (CDD) Vault (Burlingame, CA, USA). Values reported are from a minimum of two biological replicates with standard deviations.

[4] = tested on: Naegleria fowleri trophozoites; assay: CellTiter-Glo 2.0 trophocidal assay, N. fowleri; details: for IC50: 72 h, CTG method, duplicate twofold serial dilutions from 10 µM, mean ± SD, read-out: N. fowleri Mean IC50 (µM) ± SD; for Selectivity Index (A549 IC50/N. fowleri IC50): SI = (IC50 A549)/(IC50 Amoeba)
Procedure: Pathogenic Naegleria fowleri (ATCC 30215), a clinical isolate obtained from a child in Adelaide, Australia, that died of PAM in 1969 was previously purchased from the American Type Culture Collection (ATCC). Trophozoites were routinely grown axenically at 34 °C in Nelson’s complete medium (NCM) in non-vented 75 cm^2 tissue culture flasks (Olympus, El Cajon, CA, USA), until the cells were 80–90% confluent. For sub-culturing, cells were placed on ice to detach the cells from the culture flasks. The cells were collected by centrifugation at 4000 rpm at 4 °C. Complete NCM media is produced by the addition of 10% FBS and 125 μg of penicillin/streptomycin antibiotics.
The trophocidal activity of compounds was assessed using the CellTiter-Glo 2.0 luminescent viability assay (Promega, Madison, WI, USA), as previously described. Trophozoites were routinely cultured as described above and only logarithmic trophozoites were used. In brief, B. mandrillaris, N. fowleri, or A. castellanii trophozoites cultured in their corresponding media were seeded at 16,000, 3000, or 1440 cells/well into white 96-well plates (Costar 3370), respectively. Initially all compounds were assessed in a single-point drug screen at 10 and 1 μM, as previously described. […] Control wells were supplemented with 0.1% (10 μM screening plate) or 0.01% (1 μM screening plate) DMSO, as the negative controls, or 12.5 μM of chlorhexidine, as the positive control. Following the single-point assays at 10 and 1 µM, we prioritized compounds for progression to IC50 determinations. […] We used this process to reduce the number of potential false positives. Drugs were cherry-picked, dissolved in the media specific to each parasite, and assessed in twofold serial dilutions from the highest concentration of 10 μM. All assays were incubated at each of the parasites’ representative growth temperatures, described above, for 72 h. At the 72 h time point, 25 μL of CellTiter-Glo 2.0 reagent was added to all wells of the 96-well plates using the Biomek NX^P automated workstation. The plates were protected from light and contents were mixed using an orbital shaker at 300 rpm at room temperature for 2 min to induce cell lysis. After shaking, the plates were equilibrated at room temperature for 10 min to stabilize the luminescent signal. The adenosine triphosphate (ATP) luminescent signal (relative light units; RLUs) was measured at 490 nm with a SpectraMax I3X plate reader (Molecular Devices, Sunnyvale, CA, USA). Drug inhibitory concentration (IC50) curves were generated using total ATP RLUs, where controls were calculated as the average of replicates using the Levenberg–Marquardt algorithm, using DMSO as the normalization control, as defined in Collaborative Drug Discovery Inc. (CDD) Vault (Burlingame, CA, USA). Values reported are from a minimum of two biological replicates with standard deviations.

[5] = MTS assay, 72 h, doubling dilutions from 10 µM, read-out: A549 Mean IC50
[6] = Homo sapiens, A549, MTS assay, 72 h, doubling dilutions from 10 µM, read-out: A549 Mean IC50

SMILES | IC50 [1, 5] [µM] | IC50 [2] [µM] | IC50 [1, 6] [µM] | IC50 [3] | also measured
N#Cc1c(F)c(Cl)c(NCc2ccccc2)c(C#N)c1F [MMV1582496] | > 10 | 0.61 ± 0.35 |  |  | potency against A. castellanii, in words [2]: nanomolar potency
O=C(/C=C\n1cnc(-c2cc(C(F)(F)F)cc(C(F)(F)F)c2)n1)NNc1cnccn1 [Selinexor] |  |  | > 10 | 9.2 ± 1.13 µM | IC50 ([3]; Balamuthia mandrillaris): ≤ 10 µM; Selectivity Index (A549 IC50/B. mandrillaris IC50) [3]: ≥1.09
CCCCC(CC)CNC(=N)NC(=N)NCCCCCCNC(=N)NC(=N)NCC(CC)CCCC (centres unmarked) [Alexidine] |  | 2.4 ± 1.56 | 2.1 |  | IC50 ([2]; listed as alexidine): ≤ 10 µM; Selectivity Index (A549 IC50/A. castellanii IC50) [2]: 0.88
Cc1ccc(N2CCC(CCOc3ccc(S(C)(=O)=O)cc3)CC2)nn1 [MMV1634394] | > 10 |  |  | ≤ 10 µM and 8.05 µM | 
Cc1nc2ccc(Oc3ccccc3)cc2c2c1CCN2CCc1ccccc1 [MMV1634399] | > 10 |  |  | 0.73 ± 0.28 µM | potency against B. mandrillaris, in words [3]: nanomolar potency
CCc1nc(N)nc(N)c1C#CC(C)c1cc(OC)cc(-c2ccncc2)c1 (centres unmarked) [MMV1580844] | > 10 |  |  | 0.53 ± 0.11 µM | potency against B. mandrillaris, in words [3]: nanomolar potency
O=[N+]([O-])/C(Br)=C/c1ccc(Br)o1 [Furvina] | > 10 | 4.2 ± 0.85 |  |  | IC50 ([2]; listed as furvina): ≤ 10 µM
O=C(O)C(F)(F)F [Trifluoroacetic acid] |  | 1.97 ± 1 |  |  | IC50 ([1]; Homo sapiens, A549, 72 h, read-out: A549 Mean IC50 (µM)): > 10 µM; IC50 ([2]; listed as trifluoroacetic acid): ≤ 10 µM; Selectivity Index (A549 IC50/A. castellanii IC50) [2]: ≥5.10
C(=C\c1nc2ccccc2[nH]1)/c1ccc2c(c1)OCO2 [MMV1582495] | > 10 |  |  | 0.54 ± 0.04 µM | potency against B. mandrillaris, in words [3]: nanomolar potency
CNCC(=O)OCc1cccnc1N(C)C(=O)OC(C)[n+]1cnn(C[C@](O)(c2cc(F)ccc2F)[C@@H](C)c2nc(-c3ccc(C#N)cc3)cs2)c1 (some centres unmarked) [Isavuconazonium] |  |  | > 10 |  | IC50 ([2]; Acanthamoeba castellanii): 0.09 ± 0.02 µM; Selectivity Index (A549 IC50/A. castellanii IC50) [2]: ≥105; Selectivity Index (A549 IC50/A. castellanii IC50) ([2]; listed as isavuconazonium): ≥ 10; potency against A. castellanii, in words [2]: nanomolar potency
CCC(C)(C)c1ccc(CC(C)CN2C[C@@H](C)O[C@@H](C)C2)cc1 (some centres unmarked) [Amorolfine] |  | 1.63 ± 1.62 | > 10 |  | IC50 ([2]; listed as amorolfine): ≤ 10 µM; Selectivity Index (A549 IC50/A. castellanii IC50) [2]: ≥6.13
CN1CCN(Cc2ccc(-c3cnc4[nH]cc(-c5ccc6[nH]ccc6c5)c4c3)cc2)CC1 [URMC-099-C] |  |  | 4.2 | 5.35 ± 1.63 µM | IC50 ([3]; Balamuthia mandrillaris): ≤ 10 µM; Selectivity Index (A549 IC50/B. mandrillaris IC50) [3]: 0.79
CC(=O)N1CCN(c2ccc(OCC3COC(Cn4ccnc4)(c4ccc(Cl)cc4Cl)O3)cc2)CC1 (centres unmarked) [Ketoconazole] |  | 1.24 ± 0.8 | > 10 |  | IC50 ([2]; listed as ketoconazole): ≤ 10 µM
Clc1ccc(Cn2c(CN3CCCC3)nc3ccccc32)cc1 [Clemizole] |  |  | > 10 | 8.95 ± 1.48 µM | IC50 ([3]; Balamuthia mandrillaris): ≤ 10 µM; Selectivity Index (A549 IC50/B. mandrillaris IC50) [3]: ≥1.12
CC[C@H]1OC(=O)[C@H](C)[C@@H](O[C@H]2C[C@@](C)(OC)[C@@H](O)[C@H](C)O2)[C@H](C)[C@@H](O[C@@H]2O[C@H](C)C[C@H](N(C)C)[C@H]2O)[C@](C)(O)C[C@@H](C)C(=O)[C@H](C)[C@@H](O)[C@]1(C)O [Erythromycin] |  |  | > 10 |  | IC50 ([4]; Naegleria fowleri): 0.24 ± 0.02 µM; Selectivity Index (A549 IC50/N. fowleri IC50) [4]: ≥42.6; Selectivity Index (A549 IC50/N. fowleri IC50) ([4]; listed as erythromycin): ≥ 10; potency against N. fowleri, in words ([4]; dose-response, CTG): nanomolar potency
CCC(C)NCC(O)Cn1c2ccc(Cl)cc2c2cc(Cl)ccc21 (centres unmarked) [MMV1578570] | > 10 |  |  |  | IC50 [4]: 6.4 ± 0.9 µM
